Test results from ChEMBL document CHEMBL5108011, “Design, synthesis and antitumor evaluation of ATP dual-mimic 2,4-diarylaminopyrimidine and aminoindazole conjugates as potent anaplastic lymphoma kinase inhibitors” (Eur J Med Chem, 2022).
Activity calls are given as the source filed them. The calls are words filed in the database; no cut-off is given here.

How the values were obtained:
[1] = target: ALK tyrosine kinase receptor (Homo sapiens, UniProt Q9UM73); experiment: Inhibition of ALK (unknown origin) incubated for 1 hr and measured by mobility shift assay
[2] = target: ALK tyrosine kinase receptor (Homo sapiens, UniProt Q9UM73, L1196M); experiment: Inhibition of ALK L1196M mutant (unknown origin) incubated for 1 hr and measured by mobility shift assay
[3] = target: ALK tyrosine kinase receptor (Homo sapiens, UniProt Q9UM73, G1202R); experiment: Inhibition of ALK G1202R mutant (unknown origin) incubated for 1 hr and measured by mobility shift assay
[4] = target: Epidermal growth factor receptor (Homo sapiens, UniProt P00533); experiment: Inhibition of EGFR (unknown origin) incubated for 1 hr and measured by mobility shift assay
NCI-H460 = experiment: Antiproliferative activity against human NCI-H460 cells incubated for 72 hrs and measured by CCK-8 assay; type: functional, cell-based; conditions: NCI-H460, 72 h
NCI-H1581 = experiment: Antiproliferative activity against human NCI-H1581 cells incubated for 72 hrs and measured by CCK-8 assay; type: functional, cell-based; conditions: NCI-H1581, 72 h
MCF7 = experiment: Antiproliferative activity against human MCF7 cells incubated for 72 hrs and measured by CCK-8 assay; type: functional, cell-based; conditions: MCF7, 72 h
HCT-116 = experiment: Antiproliferative activity against human HCT-116 cells incubated for 72 hrs and measured by CCK-8 assay; type: functional, cell-based; conditions: HCT-116, 72 h
PC-3 = experiment: Antiproliferative activity against human PC-3 cells incubated for 72 hrs and measured by CCK-8 assay; type: functional, cell-based; conditions: PC-3, 72 h
[5] = Cytotoxicity against human HELF cells incubated for 72 hrs and measured by CCK-8 assay; type: toxicity, cell-based
NCI-H2228 [6] = experiment: Antiproliferative activity against EML4-ALK-positive human NCI-H2228 cells incubated for 3 days at 25 to 100 nM and assessed as decrease in number of colonies by colony formation assay; type: functional, cell-based; conditions: dose 25-100 nM, time 3.0 day
NCI-H2228 [7] = experiment: Inhibition of cell migration in EML4-ALK-positive human NCI-H2228 cells assessed as relative migration rate at 5 nM measured after 24 hrs by cell scratch assay (reference value: 21.4 %); type: functional; parameters: scale not given: the % may be the effect or the level left
NCI-H2228 [8] = experiment: Inhibition of cell migration in EML4-ALK-positive human NCI-H2228 cells assessed as relative migration rate at 10 nM measured after 24 hrs by cell scratch assay (reference value: 21.4 %); type: functional; parameters: scale not given: the % may be the effect or the level left
NCI-H2228 [9] = experiment: Inhibition of cell migration in EML4-ALK-positive human NCI-H2228 cells assessed as relative migration rate at 5 nM measured after 48 hrs by cell scratch assay (reference value: 35.99 %); type: functional; parameters: scale not given: the % may be the effect or the level left
NCI-H2228 [10] = experiment: Inhibition of cell migration in EML4-ALK-positive human NCI-H2228 cells assessed as relative migration rate at 10 nM measured after 48 hrs by cell scratch assay (reference value: 35.99 %); type: functional; parameters: scale not given: the % may be the effect or the level left
NCI-H2228 [11] = experiment: Induction of apoptosis in EML4-ALK-positive human NCI-H2228 cells assessed as increase in apoptotic cells at 100 to 200 nM measured after 48 hrs by AO/EB staining based inverted fluorescence microscopic analysis; type: functional, cell-based; conditions: dose 100-200 nM, DDE = dose-dependent effect
NCI-H2228 [12] = experiment: Induction of apoptosis in EML4-ALK-positive human NCI-H2228 cells assessed as increase in apoptotic cells at 100 to 200 nM measured after 48 hrs by Hoechst 33342 staining based assay; type: functional, cell-based; conditions: dose 100-200 nM, DDE = dose-dependent effect
NCI-H2228 [13] = experiment: Induction of apoptosis in EML4-ALK-positive human NCI-H2228 cells assessed as apoptotic rate at 100 nM measured after 48 hrs by annexin V-FITC/propidium iodide staining based flow cytometry (reference value: 6.6%); type: functional
NCI-H2228 [14] = experiment: Induction of apoptosis in EML4-ALK-positive human NCI-H2228 cells assessed as apoptotic rate at 200 nM measured after 48 hrs by annexin V-FITC/propidium iodide staining based flow cytometry (reference value: 6.6%); type: functional
NCI-H2228 [15] = experiment: Cell cycle arrest in EML4-ALK-positive human NCI-H2228 cells assessed as cells accumulation at G0/G1 phase at 25 nM (reference value: 53.24%); type: functional
NCI-H2228 [16] = experiment: Cell cycle arrest in EML4-ALK-positive human NCI-H2228 cells assessed as cells accumulation at G2/M phase at 25 nM (reference value: 11.28%); type: functional
NCI-H2228 [17] = experiment: Cell cycle arrest in EML4-ALK-positive human NCI-H2228 cells assessed as cells accumulation at S phase at 25 nM (reference value: 35.48%); type: functional
NCI-H2228 [18] = experiment: Cell cycle arrest in EML4-ALK-positive human NCI-H2228 cells assessed as cells accumulation at G0/G1 phase at 50 nM (reference value: 53.24%); type: functional
NCI-H2228 [19] = experiment: Cell cycle arrest in EML4-ALK-positive human NCI-H2228 cells assessed as cells accumulation at G2/M phase at 50 nM (reference value: 11.28%); type: functional
NCI-H2228 [20] = experiment: Cell cycle arrest in EML4-ALK-positive human NCI-H2228 cells assessed as cells accumulation at S phase at 50 nM (reference value: 35.48%); type: functional
NCI-H2228 [21] = experiment: Cell cycle arrest in EML4-ALK-positive human NCI-H2228 cells assessed as cells accumulation at G0/G1 phase at 100 nM (reference value: 53.24%); type: functional
NCI-H2228 [22] = experiment: Cell cycle arrest in EML4-ALK-positive human NCI-H2228 cells assessed as cells accumulation at G2/M phase at 100 nM (reference value: 11.28%); type: functional
NCI-H2228 [23] = experiment: Cell cycle arrest in EML4-ALK-positive human NCI-H2228 cells assessed as cells accumulation at S phase at 100 nM (reference value: 35.48%); type: functional
[24] = Metabolic stability in Sprague-Dawley rat liver microsomes assessed as half life at 10 uM preincubated for 5 mins followed by NADPH addition and measured upto 60 mins by HPLC analysis; type: ADME, Microsome
[25] = Intrinsic clearance in Sprague-Dawley rat liver microsomes at 10 uM preincubated for 5 mins followed by NADPH addition and measured upto 60 mins by HPLC analysis; type: ADME, Microsome; conditions: read-out: CLH
[26] = Intrinsic clearance in Sprague-Dawley rat liver at 10 uM preincubated for 5 mins followed by NADPH addition and measured upto 60 mins by HPLC analysis; type: ADME, tissue-based; conditions: read-out: CLH
[27] = Metabolic stability in Sprague-Dawley rat liver microsomes assessed as compound remaining at 10 uM preincubated for 5 mins followed by NADPH addition and measured upto 60 mins by HPLC analysis; type: ADME, Microsome; conditions: read-out: Stability
[28] = Metabolic stability in Sprague-Dawley rat liver microsomes assessed as compound remaining at 10 uM preincubated for 5 mins and measured upto 60 mins by HPLC analysis; type: ADME, Microsome; conditions: read-out: Stability
NCI-H2228 [29] = experiment: Antitumor activity against EML4-ALK-positive human NCI-H2228 cells xenografted in female BALB/c nude mouse assessed as tumor growth inhibition at 50 mg/kg, IG administered every 2 days for 7 times; type: functional; conditions: NCI-H2228, po, 48 h, time 2 day, read-out: TGI
[30] = Toxicity in female BALB/c nude mouse xenografted with EML4-ALK-positive human NCI-H2228 cells assessed as body weight loss at 25 to 50 mg/kg, IG administered every 2 days for 7 times; type: organism-based; conditions: in vivo, po, 48 h, dose 25-50 mg/kg, time 2 day
NCI-H3122 = experiment: cells; conditions: Homo sapiens, NCI-H3122, 72 h
Description: Antiproliferative activity against EML4-ALK-positive human NCI-H3122 cells incubated for 72 hrs and measured by CCK-8 assay

NCI-H2228 [31] = experiment: cells; conditions: Homo sapiens, NCI-H2228, 72 h
Description: Antiproliferative activity against EML4-ALK-positive human NCI-H2228 cells incubated for 72 hrs and measured by CCK-8 assay

KARPAS-299 = experiment: cells; conditions: Homo sapiens, KARPAS-299, 72 h
Description: Antiproliferative activity against NPM-ALK-positive human KARPAS-299 cells incubated for 72 hrs and measured by CCK-8 assay

A549 = experiment: cells; conditions: Homo sapiens, A549, 72 h
Description: Antiproliferative activity against EGFR-positive human A549 cells incubated for 72 hrs and measured by CCK-8 assay

Epidermal growth factor receptor, sequence (P00533 whole entry): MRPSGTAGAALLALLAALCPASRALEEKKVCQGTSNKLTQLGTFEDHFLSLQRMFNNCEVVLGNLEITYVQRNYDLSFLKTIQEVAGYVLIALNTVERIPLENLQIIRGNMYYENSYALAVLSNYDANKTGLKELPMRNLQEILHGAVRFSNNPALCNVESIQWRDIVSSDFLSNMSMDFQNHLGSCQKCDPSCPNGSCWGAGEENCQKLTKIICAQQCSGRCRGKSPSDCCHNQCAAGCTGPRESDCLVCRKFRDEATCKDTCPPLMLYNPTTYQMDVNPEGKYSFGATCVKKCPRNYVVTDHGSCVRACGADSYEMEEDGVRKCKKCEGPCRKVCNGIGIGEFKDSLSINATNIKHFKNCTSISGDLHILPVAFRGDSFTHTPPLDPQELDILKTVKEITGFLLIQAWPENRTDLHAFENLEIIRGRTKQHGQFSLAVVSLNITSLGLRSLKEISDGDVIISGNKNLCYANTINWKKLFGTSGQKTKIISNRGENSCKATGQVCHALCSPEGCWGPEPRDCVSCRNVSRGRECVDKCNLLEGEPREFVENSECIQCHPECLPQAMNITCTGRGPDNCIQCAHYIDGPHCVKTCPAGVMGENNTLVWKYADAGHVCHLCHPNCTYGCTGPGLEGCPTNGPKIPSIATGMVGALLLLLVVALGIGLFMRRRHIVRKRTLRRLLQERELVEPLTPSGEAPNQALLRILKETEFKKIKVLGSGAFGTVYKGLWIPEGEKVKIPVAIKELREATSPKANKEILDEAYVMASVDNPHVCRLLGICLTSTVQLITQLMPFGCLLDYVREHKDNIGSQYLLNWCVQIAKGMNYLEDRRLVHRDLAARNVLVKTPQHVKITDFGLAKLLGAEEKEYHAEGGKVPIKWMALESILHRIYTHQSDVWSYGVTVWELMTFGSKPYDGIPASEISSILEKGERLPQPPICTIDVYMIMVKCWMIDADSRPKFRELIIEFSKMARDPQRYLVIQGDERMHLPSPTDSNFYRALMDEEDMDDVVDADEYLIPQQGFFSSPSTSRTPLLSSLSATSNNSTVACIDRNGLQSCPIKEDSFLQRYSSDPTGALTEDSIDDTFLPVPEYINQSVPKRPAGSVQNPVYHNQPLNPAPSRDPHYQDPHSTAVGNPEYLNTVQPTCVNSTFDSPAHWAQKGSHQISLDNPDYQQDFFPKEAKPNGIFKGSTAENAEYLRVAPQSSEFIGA
ALK tyrosine kinase receptor (Homo sapiens, UniProt Q9UM73, L1196M), sequence (Q9UM73 19-1620 L1196M limits assumed): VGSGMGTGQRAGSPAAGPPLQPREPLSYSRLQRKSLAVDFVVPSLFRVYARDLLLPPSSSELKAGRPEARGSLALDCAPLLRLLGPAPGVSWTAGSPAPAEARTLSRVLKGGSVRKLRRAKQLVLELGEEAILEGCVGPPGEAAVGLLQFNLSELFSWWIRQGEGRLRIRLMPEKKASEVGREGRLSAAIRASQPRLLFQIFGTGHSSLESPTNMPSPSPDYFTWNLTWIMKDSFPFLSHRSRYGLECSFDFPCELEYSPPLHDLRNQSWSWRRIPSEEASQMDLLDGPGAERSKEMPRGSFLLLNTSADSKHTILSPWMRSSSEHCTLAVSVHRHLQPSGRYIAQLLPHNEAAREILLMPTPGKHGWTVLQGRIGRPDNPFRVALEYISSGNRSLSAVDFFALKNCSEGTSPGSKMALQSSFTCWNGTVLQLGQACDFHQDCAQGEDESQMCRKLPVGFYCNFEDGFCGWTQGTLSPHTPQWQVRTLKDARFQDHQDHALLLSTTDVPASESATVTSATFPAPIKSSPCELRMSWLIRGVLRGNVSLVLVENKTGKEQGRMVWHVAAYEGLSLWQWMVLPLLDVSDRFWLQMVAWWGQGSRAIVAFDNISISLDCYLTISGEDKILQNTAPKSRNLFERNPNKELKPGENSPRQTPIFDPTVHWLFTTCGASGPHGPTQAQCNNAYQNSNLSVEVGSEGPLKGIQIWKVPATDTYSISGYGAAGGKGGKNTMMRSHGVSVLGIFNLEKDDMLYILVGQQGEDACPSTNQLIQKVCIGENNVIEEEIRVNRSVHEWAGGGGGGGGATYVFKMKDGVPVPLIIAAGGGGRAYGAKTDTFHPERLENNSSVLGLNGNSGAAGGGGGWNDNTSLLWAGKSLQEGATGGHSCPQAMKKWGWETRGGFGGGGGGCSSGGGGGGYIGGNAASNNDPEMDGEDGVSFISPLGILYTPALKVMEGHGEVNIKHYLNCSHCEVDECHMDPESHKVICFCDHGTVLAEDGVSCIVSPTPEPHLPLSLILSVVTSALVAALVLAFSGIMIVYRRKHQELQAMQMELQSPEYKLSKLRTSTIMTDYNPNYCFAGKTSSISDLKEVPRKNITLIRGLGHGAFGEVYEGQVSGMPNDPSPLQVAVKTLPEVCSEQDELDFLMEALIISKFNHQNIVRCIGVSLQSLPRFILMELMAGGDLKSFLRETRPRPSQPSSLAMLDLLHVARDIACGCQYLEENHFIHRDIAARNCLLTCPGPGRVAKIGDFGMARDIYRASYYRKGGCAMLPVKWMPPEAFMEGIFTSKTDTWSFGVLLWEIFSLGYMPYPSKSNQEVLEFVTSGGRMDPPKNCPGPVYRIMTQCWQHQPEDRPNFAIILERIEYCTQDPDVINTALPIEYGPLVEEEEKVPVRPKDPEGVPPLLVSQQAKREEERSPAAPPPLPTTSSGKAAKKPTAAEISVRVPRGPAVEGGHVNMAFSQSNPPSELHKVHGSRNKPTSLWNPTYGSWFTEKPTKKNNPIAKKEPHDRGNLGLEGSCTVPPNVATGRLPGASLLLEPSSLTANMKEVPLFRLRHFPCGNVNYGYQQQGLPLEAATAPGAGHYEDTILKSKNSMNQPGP
ALK tyrosine kinase receptor (Homo sapiens, UniProt Q9UM73), sequence (Q9UM73 whole entry): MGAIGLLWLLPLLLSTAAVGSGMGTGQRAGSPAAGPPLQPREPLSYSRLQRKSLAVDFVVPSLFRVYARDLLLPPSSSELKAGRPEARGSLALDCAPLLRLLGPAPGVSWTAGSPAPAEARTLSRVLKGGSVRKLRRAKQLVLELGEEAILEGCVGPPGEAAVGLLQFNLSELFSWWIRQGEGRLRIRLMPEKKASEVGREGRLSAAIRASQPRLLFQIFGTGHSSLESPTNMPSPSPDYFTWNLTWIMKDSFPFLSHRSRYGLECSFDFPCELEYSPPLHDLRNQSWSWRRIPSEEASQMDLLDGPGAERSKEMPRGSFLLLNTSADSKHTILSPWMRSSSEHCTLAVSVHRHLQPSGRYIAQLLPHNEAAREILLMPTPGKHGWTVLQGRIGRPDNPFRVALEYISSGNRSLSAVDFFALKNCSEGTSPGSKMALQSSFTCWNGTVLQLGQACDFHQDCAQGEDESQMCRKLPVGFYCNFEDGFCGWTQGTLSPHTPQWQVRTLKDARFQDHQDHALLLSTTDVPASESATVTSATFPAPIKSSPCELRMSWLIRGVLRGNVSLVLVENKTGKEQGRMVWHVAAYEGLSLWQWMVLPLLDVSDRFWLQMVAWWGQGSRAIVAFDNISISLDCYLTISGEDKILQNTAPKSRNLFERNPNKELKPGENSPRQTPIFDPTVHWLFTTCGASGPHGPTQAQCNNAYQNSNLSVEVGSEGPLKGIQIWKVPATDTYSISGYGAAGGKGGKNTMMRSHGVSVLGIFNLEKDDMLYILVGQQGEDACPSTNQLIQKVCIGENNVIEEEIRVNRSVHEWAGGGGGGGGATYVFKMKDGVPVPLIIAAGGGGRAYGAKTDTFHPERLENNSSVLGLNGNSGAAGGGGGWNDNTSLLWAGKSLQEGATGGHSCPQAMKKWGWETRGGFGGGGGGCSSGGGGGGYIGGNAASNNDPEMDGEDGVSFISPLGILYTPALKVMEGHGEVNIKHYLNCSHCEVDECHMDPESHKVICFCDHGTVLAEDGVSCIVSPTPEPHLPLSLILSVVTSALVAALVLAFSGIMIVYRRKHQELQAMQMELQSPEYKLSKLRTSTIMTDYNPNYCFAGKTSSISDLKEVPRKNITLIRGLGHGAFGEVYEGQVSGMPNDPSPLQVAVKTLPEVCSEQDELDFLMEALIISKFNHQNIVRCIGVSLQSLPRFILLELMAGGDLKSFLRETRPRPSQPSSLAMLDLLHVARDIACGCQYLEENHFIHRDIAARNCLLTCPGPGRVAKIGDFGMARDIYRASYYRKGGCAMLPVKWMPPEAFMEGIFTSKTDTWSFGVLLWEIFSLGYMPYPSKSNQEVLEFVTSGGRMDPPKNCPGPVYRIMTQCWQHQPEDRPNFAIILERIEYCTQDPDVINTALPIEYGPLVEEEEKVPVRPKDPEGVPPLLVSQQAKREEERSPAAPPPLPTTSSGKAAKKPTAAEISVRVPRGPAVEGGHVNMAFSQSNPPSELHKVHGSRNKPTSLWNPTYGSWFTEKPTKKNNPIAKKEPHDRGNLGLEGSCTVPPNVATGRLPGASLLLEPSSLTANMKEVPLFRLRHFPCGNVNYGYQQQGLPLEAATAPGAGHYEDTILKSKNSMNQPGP
ALK tyrosine kinase receptor (Homo sapiens, UniProt Q9UM73, G1202R), sequence (Q9UM73 19-1620 G1202R limits assumed): as the sequence (Q9UM73 19-1620 L1196M limits assumed) above, with M1178L, G1184R counted along it

IC50 [1]: 0.0016 µM | IC50 [2]: 0.00071 µM | IC50 [3]: 0.0013 µM | IC50 [4]: > 1 µM | IC50 (NCI-H460): 8.21 µM | IC50 (NCI-H1581): 1.87 µM | IC50 (MCF7): 2.22 µM | IC50 (HCT-116): 1.56 µM | IC50 (PC-3): 1.23 µM | half-life at 10 µM [24]: 16.3 min | microsomal CLint at 10 µM [25]: 84.9 µL/min/mg | CLint scaled at 10 µM [26]: 153 mL/min/kg | remaining at 1 h, 10 µM [27]: 7.5% | remaining at 1 h, 10 µM [28]: 86.2% | IC50 (NCI-H3122): 0.012 µM | IC50 (NCI-H2228 [31]): 0.017 µM | IC50 (KARPAS-299): 0.015 µM | IC50 (A549): 1.33 µM
Structure (SMILES): CC(C)S(=O)(=O)c1ccccc1Nc1nc(Nc2ccc3c(NC(=O)CN4CCCC4)n[nH]c3c2)ncc1Cl
IC50 at 72 h [5]: > 20 µM | Activity (NCI-H2228 [6]): Active | Activity (NCI-H2228 [7]): 7.3% | Activity (NCI-H2228 [8]): 2.31% | Activity (NCI-H2228 [9]): 17.02% | Activity (NCI-H2228 [10]): 5.01% | Activity (NCI-H2228 [11]): Dde | Activity (NCI-H2228 [12]): Dde | Activity (NCI-H2228 [13]): 18.83% | Activity (NCI-H2228 [14]): 23.28% | Activity (NCI-H2228 [15]): 45.1% | Activity (NCI-H2228 [16]): 45.5% | Activity (NCI-H2228 [17]): 9.4% | Activity (NCI-H2228 [18]): 31.29% | Activity (NCI-H2228 [19]): 61.31% | Activity (NCI-H2228 [20]): 7.4% | Activity (NCI-H2228 [21]): 26.77% | Activity (NCI-H2228 [22]): 73.23% | Activity (NCI-H2228 [23]): 0% | inhibition in vivo at 50 mg/kg (NCI-H2228 [29]): 70.5% | Activity [30]: Non-Toxic
